{
  "source": "patent US20110166417A1",
  "about": "“METHOD AND DEVICE FOR REPAIR OF DEGENERATIVE CARTILAGE” (THE REGENTS OF UNIVERSITY OF MICHIGAN, priority 2008, published 2011)",
  "key": {"[1]": {"test_system": "BMP-2, aggrecan and type II collagen mRNA expression in rat IVD cells", "assay": "Mevalonate experiment", "assay_type": "cell-based", "conditions": "mevalonate 200 μM"}, "rat IVD cells": {"test_system": "rat IVD cells", "assay": "MTT assay, cell viability", "assay_type": "cell-based", "protocol": "MTT assay. Cell proliferation was determined by a modified MTT assay (Sigma-Aldrich) (47, 48). Briefly, at each time point, the medium was aspirated and washed with PBS once. MTT solution (0.5 mg/ml) in PBS was added and incubated at 37° C. for 1.5 hr. The cells were removed from the alginate bead and pelleted by centrifugation. The cell pellet was then washed with D-PBS once and 10% Triton X-100, 0.1 N HCl in 2-propanol solution was added to each well to dissolve the formazan at 4° C. for 3 hrs. The dissolved solution was centrifuged and the absorbance was determined immediately using a spectrophotometer at 540 nm wavelength filter. All experiments were performed in triplicate."}, "[2]": {"test_system": "BMP-2, aggrecan and type II collagen mRNA expression in rat IVD cells", "assay": "Quantitative real-time PCR, 3-D culture in alginate beads", "assay_type": "cell-based, Sprague-Dawley rats", "source_text": "Monolayer and Three-dimensional cell culture: Cells were trypsinized and subcultured in 12-well plate or embedded and cultured in alginate beads supplemented with complete DMEM/F12 medium after primary culture. […] Quantitative real-time PCR: […] IVD Cell Isolation. Lumbar IVDs from Sprague-Dawley rats (Harlan Sprague-Dawley, Indianapolis, Ind.) aged 6-8 weeks were harvested immediately after euthanasia. NP and inner AF, including the transition zone (the area between the AF and the NP) were carefully removed from the disc and placed in DMEM/F12 medium (Gibco, Grand Island, N.Y.). […] Louis, Mo.) and 0.004% deoxyribonuclease II (Sigma-Aldrich) for 90 min at 37° C. under gentle agitation. The tissues were washed 3 times with Dulbecco's phosphate buffered saline (D-PBS) followed by digestion under the same conditions, except that the pronase was replaced with 0.04% collagenase type II (Sigma-Aldrich) for 6 hrs. […] Culture medium was changed on day 6 after cell seeding, and twice per week thereafter. Cell Culture in Alginate Beads. When the primary cell culture became confluent, the cells were trypsinized and washed twice with D-PBS and re-suspended in sterile 0.15 M NaCl containing 1.2% low-viscosity alginate (Sigma-Aldrich) at a density of 1×10^6 cells/ml. […] After 15 min, the newly formed alginate beads (containing about 12,000 cells/bead) were washed 3 times with sterile 0.15 M NaCl solution followed by 2 washes with DMEM/F-12 medium. […] Three days later, the medium was changed and treated with different doses of simvastatin (LKT Laboratories, St. […] To remove cells from the alginate bead, wells were rinsed 3 times with 0.15 M NaCl with gentle pipetting into the well. The rinse solution was incubated for 1 min and was aspirated off. Dissolving buffer (55 mmol/L sodium citrate and 0.15 M NaCl, pH 6.0) 3 times the volume of alginate was added to the wells, and plates were incubated at 37° C. for 15 min with gentle shaking. Cells were pelleted by centrifugation and the dissolved solution was collected for sGAG content measurement. The cell pellet was washed with D-PBS once and collected for DNA content determination or RNA extraction. All experiments were performed in triplicate. RNA Isolation and Reverse Transcription. Total RNA was extracted using the Trizol (Invitrogen, Carlsbad, Calif.) reagent followed by RNeasy Mini Kit (Qiagen, Inc., Valencia, Calif.) and DNase digestion with the RNase-free DNase set (Qiagen). Concentration of total RNA was determined at 260 nm with a spectrophotometer. Reverse transcription was carried out at 42° C. for 50 min in 20-μL volume with 100 ng of total RNA using the SuperScript First-Strand Synthesis System (Invitrogen, Carlsbad, Calif.). Quantitative Real-Time Polymerase Chain Reaction. Real-time polymerase chain reaction (PCR) was used to quantify gene expression levels of type II collagen, aggrecan, and BMP-2. GAPDH was used as an internal control and the TAQMAN® Real-Time PCR Kit (Applied Biosystems, Foster City, Calif.) was implemented. Reaction volume of 30 μl included 1 μL of cDNA, 1.5 ul of 20× of each primer/probe, and 12.5 μL of TAQMAN® PCR Master Mix (2×) (Applied Biosystems). Real-time PCR was performed using the following 3-step protocol: Step 1, 50° C. for 2 min; Step 2, 95° C. for 10 min; and Step 3, (95° C. for 15 sec, 60° C. for 1 min) times 45 cycles using the Gene Amp 7700 Sequence Detection System (Applied Biosystems). A positive standard curve for each primer was obtained by real-time PCR with serially-diluted cDNA sample mixture. The reaction efficacy of each gene was determined using the standard curves. The quantity of gene expression of aggrecan, type II collagen, and BMP-2 were calculated with standard samples and normalized with GAPDH internal control."}, "IVD cells": {"test_system": "IVD cells", "assay": "IVD cell proliferation / range of cell tolerance", "assay_type": "cell-based, Sprague-Dawley rats", "conditions": "rat IVD cells", "source_text": "(§1) Disc cell isolation: Nucleus pulposus and inner anulus fibrosus cells of lumbar intervertebral discs from Sprague-Dawley rats were harvested by the enzymatic digestion and grown in monolayer until reached confluence.\n(§2) Monolayer and Three-dimensional cell culture: Cells were trypsinized and subcultured in 12-well plate or embedded and cultured in alginate beads supplemented with complete DMEM/F12 medium after primary culture."}, "[3]": {"test_system": "BMP-2, aggrecan and collagen II mRNA expression in IVD cells", "assay": "Quantitative real-time PCR, monolayer culture", "assay_type": "cell-based, Sprague-Dawley rats", "conditions": "3 μM, maximal at day 3", "source_text": "as §1, §2\nQuantitative real-time PCR: Total RNAs were extracted and cDNAs were synthesized using Invitrogen […]™ first-strand synthesis kit."}, "BMP-2": {"target": "T1, BMP-2 (Homo sapiens, UniProt P12643)", "T1 sequence (P12643 283-396)": "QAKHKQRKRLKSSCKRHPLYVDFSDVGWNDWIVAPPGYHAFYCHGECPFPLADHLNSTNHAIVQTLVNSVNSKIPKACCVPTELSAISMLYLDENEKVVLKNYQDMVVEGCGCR", "conditions": "noggin 3 μg/ml; cited from earlier work"}, "[4]": {"test_system": "aggrecan and type II collagen mRNA expression in rat IVD cells", "assay": "BMP inhibition experiment (noggin)", "assay_type": "cell-based", "protocol": "BMP Inhibition Experiment. […] On day 7 and/or day 14, the cells were removed from the alginate beads and the gene expression of type II collagen and aggrecan was determined."}, "[5]": {"conditions": "noggin 3 μg/ml, simvastatin 3 μM, day 14"}},
  "data": [
    {"compound": "CC(O)(CCO)CC(=O)O", "note": "(stereo not drawn) [Mevalonate, mevalonate]", "values": [
      {"measurement": "aggrecan, type II collagen and BMP-2 gene expression, mevalonate alone", "setting": "[1]; alginate beads", "value": "had no effect"},
      {"measurement": "effect on gene expression (BMP-2, aggrecan, type II collagen) upregulated by simvastatin", "setting": "[1]; simvastatin 3 μM, days 7 and 14", "value": "completely reversed"}
    ]},
    {"compound": "CCC(C)(C)C(=O)O[C@H]1C[C@@H](C)C=C2C=C[C@H](C)[C@H](CC[C@@H]3C[C@@H](O)CC(=O)O3)[C@H]21", "note": "[simvastatin]", "values": [
      {"measurement": "IVD cell viability", "setting": "rat IVD cells; 0.3 μM, time points tested", "value": "had no effect"},
      {"measurement": "IVD cell viability", "setting": "rat IVD cells; 1 μM, from day 3 and thereafter", "value": "significant decrease"},
      {"measurement": "IVD cell viability", "setting": "rat IVD cells; 3 μM, all time points tested", "value": "decreased"},
      {"measurement": "increase of collagen type II mRNA expression", "setting": "[2]; 3-D culture (alginate beads), 3 μM, day 21", "value": 16, "unit": "fold"},
      {"measurement": "increase of aggrecan mRNA expression", "setting": "[2]; 3-D culture, 3 μM, day 21", "value": 11, "unit": "fold"},
      {"measurement": "increase of BMP-2 mRNA expression", "setting": "[2]; 3-D culture, 3 μM, peak level at day 7", "value": 5, "unit": "fold"},
      {"measurement": "day of maximal type II collagen mRNA expression", "setting": "[2]; alginate beads", "value": 21, "unit": "days"},
      {"measurement": "day of maximum BMP-2 mRNA expression", "setting": "[2]; alginate beads, 3 μM", "value": 2, "unit": "days"},
      {"measurement": "day of maximum aggrecan mRNA expression", "setting": "[2]; alginate beads, 3 μM", "value": 21, "unit": "days"},
      {"measurement": "dose over which IVD cell proliferation was inhibited", "setting": "IVD cells", "value": "over 3 μM"},
      {"measurement": "increase of BMP-2 mRNA expression", "setting": "[3]", "value": 2, "unit": "fold"}
    ]},
    {"compound": "Noggin", "values": [
      {"measurement": "block of BMP-2 activity", "setting": "BMP-2", "value": "over 90%"},
      {"measurement": "aggrecan and type II collagen mRNA expression, noggin alone", "setting": "[4]; noggin 500 ng/ml, no simvastatin", "value": "had no interference"},
      {"measurement": "block of aggrecan and type II collagen gene expression upregulated by simvastatin", "setting": "[4]; noggin 500 ng/ml, simvastatin 3 μM, day 7", "value": "significantly blocked"},
      {"measurement": "block of aggrecan and type II collagen gene expression upregulated by simvastatin", "setting": "[4]; noggin 500 ng/ml, simvastatin 3 μM, day 14", "value": "did not endure"},
      {"measurement": "aggrecan and type II collagen gene expression compared with Veh+Veh, noggin alone", "setting": "[4]; noggin 3 μg/ml", "value": "inhibited both gene expressions significantly"},
      {"measurement": "effect on aggrecan gene expression upregulated by simvastatin", "setting": "[4]; [5]", "value": "failed to block"},
      {"measurement": "effect on type II collagen gene expression upregulated by simvastatin", "setting": "[4]; [5]", "value": "attenuated"},
      {"measurement": "effect on type II collagen gene expression upregulated by simvastatin", "setting": "[4]; noggin 3 μg/ml, simvastatin 3 μM, day 14, listed as noggin", "value": "significantly attenuated"}
    ]}
  ]
}
